Patent publication US9029337B2, “Modulation of factor 7 expression” (Isis Pharmaceuticals, Inc., priority 2007, dated 2015)
Strand notation (5' to 3'): a small letter for the sugar, then the base; units joined by * are phosphorothioate-linked, units joined directly phosphodiester-linked; [ ] holds rarer units or linkages, { } end groups; capitals alone tell only the bases. e = 2'-O-(2-methoxyethyl) (MOE); [5mC] = 5-methylcytosine; d = 2'-deoxy (DNA)

test system: human Factor 7 mRNA; test: Antisense inhibition of human Factor 7 mRNA in HepB3 cells, 50 nM antisense oligonucleotide, lipofectin; type: cell-based; conditions: Table 13 (microwalk), 50 nM, lipofectin, approximately 24 hours
Method in brief: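 Percent inhibition of Factor 7 mRNA, relative to untreated control, comes from real-time RT-PCR with RIBOGREEN normalization, using primer probe set RTS 2927 in some runs. RNA was taken roughly 24 h after lipofectin delivery of 50 nM oligonucleotide into HepB3 cells.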

Row | Substance | % Inhibition [%]
1 | 422085 (antisense eG*e[5mC]*eA*eT*eG*dG*dT*dG*dA*dT*dG*d[5mC]*dT*dT*d[5mC]*eT*eG*eA*eA*eT) [compound 422085] | 70

same assay, conditions: lipofectin, 50 nM antisense oligonucleotide, approximately 24 hours, Factor 7 mRNA by real-time RT-PCR (RTS 2927), relative to untreated control

Row | Substance | % Inhibition [%]
2 | 416548 (antisense eA*eG*eG*eT*eG*dA*dA*dT*dG*dA*dA*dA*dT*dT*d[5mC]*eT*eA*e[5mC]*e[5mC]*eT) [compound 416548] | 29
3 | 416550 (antisense eT*eG*eG*e[5mC]*eT*dG*dG*d[5mC]*dT*dG*dA*dG*dG*dA*dG*eA*e[5mC]*eA*eA*eT) [compound 416550] | 55
4 | 416551 (antisense e[5mC]*eA*eG*eA*eA*dA*d[5mC]*dA*d[5mC]*d[5mC]*d[5mC]*dA*dT*d[5mC]*d[5mC]*eT*e[5mC]*eT*eG*eA) [compound 416551] | 19
5 | 416552 (antisense eT*e[5mC]*eT*eG*e[5mC]*dA*d[5mC]*dA*dG*dG*dG*dT*dA*dG*dA*e[5mC]*e[5mC]*e[5mC]*eT*e[5mC]) [compound 416552] | 46
6 | 416553 (antisense eG*eG*eT*eT*e[5mC]*dT*d[5mC]*dT*dG*d[5mC]*dA*d[5mC]*dA*dG*dG*eG*eT*eA*eG*eA) [compound 416553] | 56
7 | 416554 (antisense eA*eA*eA*eG*eA*dT*d[5mC]*d[5mC]*d[5mC]*dA*d[5mC]*d[5mC]*dT*d[5mC]*dA*eA*eA*eG*eA*eG) [compound 416554] | 7
8 | 416555 (antisense eA*eA*eA*eG*eA*dT*d[5mC]*dA*dG*dG*d[5mC]*dA*dA*dA*dG*eA*eT*e[5mC]*e[5mC]*e[5mC]) [compound 416555] | 6
9 | 416556 (antisense eA*eT*eA*eG*e[5mC]*dT*dT*dT*dG*dA*dT*d[5mC]*d[5mC]*dA*dA*eT*eG*e[5mC]*eT*e[5mC]) [compound 416556] | 53
10 | 416557 (antisense eT*e[5mC]*e[5mC]*e[5mC]*eA*dG*dG*d[5mC]*dA*dA*dA*dG*d[5mC]*dT*dG*e[5mC]*eT*e[5mC]*eA*eG) [compound 416557] | 56
11 | 416558 (antisense eT*eG*eA*e[5mC]*eA*dG*d[5mC]*dA*d[5mC]*dG*dA*dA*dG*d[5mC]*d[5mC]*e[5mC]*eA*eG*eA*eG) [compound 416558] | 19
12 | 416559 (antisense eG*e[5mC]*e[5mC]*eA*eT*dT*dT*d[5mC]*dT*dA*dG*dG*dT*d[5mC]*dT*eG*e[5mC]*eA*eG*eG) [compound 416559] | 25
13 | 416560 (antisense eT*eA*eA*eA*eA*d[5mC]*dT*dT*dT*dA*dT*dT*dT*dA*d[5mC]*eA*eA*eG*eA*eG) [compound 416560] | 0
14 | 416561 (antisense eG*eG*eT*eG*eT*dG*dT*dT*d[5mC]*d[5mC]*d[5mC]*dA*dT*dA*dA*eA*eA*e[5mC]*eT*eT) [compound 416561] | 16
15 | 416562 (antisense eA*eA*eA*eG*e[5mC]*dA*dG*dA*dG*d[5mC]*d[5mC]*dA*dG*d[5mC]*dT*e[5mC]*eT*eG*eA*e[5mC]) [compound 416562] | 12
16 | 416563 (antisense eG*e[5mC]*e[5mC]*eT*eG*d[5mC]*dA*dT*dT*dT*d[5mC]*d[5mC]*d[5mC]*dA*dT*eT*eG*eG*e[5mC]*eA) [compound 416563] | 0
17 | 416564 (antisense eG*e[5mC]*e[5mC]*eA*e[5mC]*dT*d[5mC]*dA*d[5mC]*dA*dG*dA*dA*dA*dG*e[5mC]*eT*eG*eG*eA) [compound 416564] | 0
18 | 416565 (antisense e[5mC]*eA*eG*eG*eA*dT*dG*d[5mC]*dT*d[5mC]*dA*dT*dG*dG*d[5mC]*eA*eG*eA*e[5mC]*eA) [compound 416565] | 0
19 | 416566 (antisense eG*eT*eT*eT*eG*dT*dA*dT*dG*dG*dA*dG*dA*dG*dA*e[5mC]*e[5mC]*eA*eA*eT) [compound 416566] | 0
20 | 416567 (antisense eT*eG*eG*eT*eG*dG*d[5mC]*dA*d[5mC]*d[5mC]*dA*dG*dA*dT*dG*eT*e[5mC]*eT*eG*eA) [compound 416567] | 2
21 | 416568 (antisense e[5mC]*eA*eT*eT*eG*dT*dG*d[5mC]*d[5mC]*dT*dG*dG*d[5mC]*dA*d[5mC]*eA*e[5mC]*eA*eG*eG) [compound 416568] | 14
22 | 416569 (antisense eG*e[5mC]*e[5mC]*eT*eG*dG*dT*dG*dT*dG*d[5mC]*dA*d[5mC]*dA*d[5mC]*eA*eT*eT*eG*eT) [compound 416569] | 12

same assay, conditions: oligonucleotides targeted to nucleobases 11830 to 11869 of SEQ ID NO: 1 (Table 9)

Row | Substance | % Inhibition (human Factor 7 mRNA levels) [%]
23 | 422088 (antisense eT*e[5mC]*eA*eG*eG*dG*d[5mC]*dT*dG*dG*dT*dT*dT*dT*dG*eG*eA*eG*eG*eA) [compound 422088] | 8
24 | 422089 (antisense eG*eT*e[5mC]*eA*eG*dG*dG*d[5mC]*dT*dG*dG*dT*dT*dT*dT*eG*eG*eA*eG*eG) [compound 422089] | 22
25 | 422090 (antisense eG*eG*eT*e[5mC]*eA*dG*dG*dG*d[5mC]*dT*dG*dG*dT*dT*dT*eT*eG*eG*eA*eG) [compound 422090] | 42
26 | 422091 (antisense eT*eG*eG*eT*e[5mC]*dA*dG*dG*dG*d[5mC]*dT*dG*dG*dT*dT*eT*eT*eG*eG*eA) [compound 422091] | 42
27 | 422092 (antisense eA*eT*eG*eG*eT*d[5mC]*dA*dG*dG*dG*d[5mC]*dT*dG*dG*dT*eT*eT*eT*eG*eG) [compound 422092] | 36
28 | 422093 (antisense eA*eA*eT*eG*eG*dT*d[5mC]*dA*dG*dG*dG*d[5mC]*dT*dG*dG*eT*eT*eT*eT*eG) [compound 422093] | 42
29 | 422094 (antisense e[5mC]*eA*eA*eT*eG*dG*dT*d[5mC]*dA*dG*dG*dG*d[5mC]*dT*dG*eG*eT*eT*eT*eT) [compound 422094] | 48
30 | 422095 (antisense eA*e[5mC]*eA*eA*eT*dG*dG*dT*d[5mC]*dA*dG*dG*dG*d[5mC]*dT*eG*eG*eT*eT*eT) [compound 422095] | 60
31 | 422097 (antisense eG*eA*eG*eA*e[5mC]*dA*dA*dT*dG*dG*dT*d[5mC]*dA*dG*dG*eG*e[5mC]*eT*eG*eG) [compound 422097] | 59
32 | 422098 (antisense eG*eG*eA*eG*eA*d[5mC]*dA*dA*dT*dG*dG*dT*d[5mC]*dA*dG*eG*eG*e[5mC]*eT*eG) [compound 422098] | 53
33 | 422099 (antisense eA*eG*eG*eA*eG*dA*d[5mC]*dA*dA*dT*dG*dG*dT*d[5mC]*dA*eG*eG*eG*e[5mC]*eT) [compound 422099] | 48
34 | 422100 (antisense eG*eA*eG*eG*eA*dG*dA*d[5mC]*dA*dA*dT*dG*dG*dT*d[5mC]*eA*eG*eG*eG*e[5mC]) [compound 422100] | 59
35 | 422101 (antisense eT*eG*eA*eG*eG*dA*dG*dA*d[5mC]*dA*dA*dT*dG*dG*dT*e[5mC]*eA*eG*eG*eG) [compound 422101] | 42
36 | 422102 (antisense e[5mC]*eT*eG*eA*eG*dG*dA*dG*dA*d[5mC]*dA*dA*dT*dG*dG*eT*e[5mC]*eA*eG*eG) [compound 422102] | 62
37 | 422103 (antisense eG*e[5mC]*eT*eG*eA*dG*dG*dA*dG*dA*d[5mC]*dA*dA*dT*dG*eG*eT*e[5mC]*eA*eG) [compound 422103] | 38
38 | 422104 (antisense eG*eG*e[5mC]*eT*eG*dA*dG*dG*dA*dG*dA*d[5mC]*dA*dA*dT*eG*eG*eT*e[5mC]*eA) [compound 422104] | 59
39 | 422105 (antisense eT*eG*eG*e[5mC]*eT*dG*dA*dG*dG*dA*dG*dA*d[5mC]*dA*dA*eT*eG*eG*eT*e[5mC]) [compound 422105] | 60
40 | 422106 (antisense e[5mC]*eT*eG*eG*e[5mC]*dT*dG*dA*dG*dG*dA*dG*dA*d[5mC]*dA*eA*eT*eG*eG*eT) [compound 422106] | 32
41 | 422107 (antisense eG*e[5mC]*eT*eG*eG*d[5mC]*dT*dG*dA*dG*dG*dA*dG*dA*d[5mC]*eA*eA*eT*eG*eG) [compound 422107] | 36

same assay, conditions: oligonucleotides targeted to nucleobases 13760 to 13789 of SEQ ID NO: 1 (Table 10)

Row | Substance | % Inhibition (human Factor 7 mRNA levels) [%]
42 | 422108 (antisense e[5mC]*e[5mC]*eG*e[5mC]*e[5mC]*dG*dG*d[5mC]*dT*d[5mC]*dT*dG*d[5mC]*dT*d[5mC]*eA*eT*e[5mC]*e[5mC]*e[5mC]) [compound 422108] | 69
43 | 422109 (antisense e[5mC]*e[5mC]*e[5mC]*eG*e[5mC]*d[5mC]*dG*dG*d[5mC]*dT*d[5mC]*dT*dG*d[5mC]*dT*e[5mC]*eA*eT*e[5mC]*e[5mC]) [compound 422109] | 68
44 | 422110 (antisense eA*e[5mC]*e[5mC]*e[5mC]*eG*d[5mC]*d[5mC]*dG*dG*d[5mC]*dT*d[5mC]*dT*dG*d[5mC]*eT*e[5mC]*eA*eT*e[5mC]) [compound 422110] | 53
